Usually IC50 stands for the midpoint of a concentration-inhibition curve.

Bounds are passed on as bounds.

The experiment addresses T1, PARP7 (Homo sapiens, UniProt Q7Z3E1).
T1 construct: purchased BPS 80527
T1 sequence (Q7Z3E1 1-657): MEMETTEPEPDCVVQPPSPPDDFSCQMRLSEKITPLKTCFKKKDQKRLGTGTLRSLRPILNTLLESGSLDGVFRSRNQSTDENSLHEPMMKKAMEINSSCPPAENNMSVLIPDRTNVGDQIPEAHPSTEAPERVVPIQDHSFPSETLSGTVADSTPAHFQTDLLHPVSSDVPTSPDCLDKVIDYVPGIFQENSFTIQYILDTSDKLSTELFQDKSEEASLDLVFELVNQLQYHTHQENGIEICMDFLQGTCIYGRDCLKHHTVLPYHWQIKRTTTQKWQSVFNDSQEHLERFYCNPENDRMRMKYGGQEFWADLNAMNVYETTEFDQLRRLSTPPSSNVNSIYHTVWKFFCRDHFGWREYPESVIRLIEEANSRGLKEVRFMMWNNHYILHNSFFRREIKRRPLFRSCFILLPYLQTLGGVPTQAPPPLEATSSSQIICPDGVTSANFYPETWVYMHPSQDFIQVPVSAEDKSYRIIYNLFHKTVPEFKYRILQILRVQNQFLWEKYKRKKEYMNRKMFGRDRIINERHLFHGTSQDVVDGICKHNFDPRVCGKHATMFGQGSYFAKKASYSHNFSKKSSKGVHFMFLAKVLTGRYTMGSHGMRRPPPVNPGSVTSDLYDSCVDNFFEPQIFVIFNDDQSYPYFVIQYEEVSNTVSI
As to the kind of experiment: PARP7 inhibitory activity assay (histone-coated 384-well plate, chemiluminescence). The class given is biochemical. An excerpt:
Inhibition rate (%) calculation formula: […]
In the case of `O=C([C@H]1CC[C@H](NCc2c[nH]c(=O)c(C(F)(F)F)c2)C1)N1C2CCC1CN(c1ncc(C(F)(F)F)cn1)C2` [Embodiment 1], the IC50 was in the range of 1 to 10 µM.
In the case of `C[C@@H](CN1CC[C@@H](C(=O)N2C3CCC2CN(c2ncc(C(F)(F)F)cn2)C3)C1)Nc1cn[nH]c(=O)c1C(F)(F)F` [Embodiment 2] it was 0.01 to 0.1 µM.
For the compound `C[C@@H](CN1CC[C@H](C(=O)N2C3CCC2CN(c2ncc(C(F)(F)F)cn2)C3)C1)Nc1cn[nH]c(=O)c1C(F)(F)F` [Embodiment 6], the IC50 was 0.01 to 0.1 µM.
Then `O=C(c1ccc(NCc2c[nH]c(=O)c(C(F)(F)F)c2)cc1)N1C2CCC1CN(c1ncc(C(F)(F)F)cn1)C2` [Embodiment 7], with 0.1 to 1 µM.
In turn, `C[C@@H]1CN(c2ncc(C(F)(F)F)cn2)CCN1C(=O)[C@H]1C[C@H](NCc2c[nH]c(=O)c(C(F)(F)F)c2)C1` [Embodiment 8] returned an IC50 of 0.01 to 0.1 µM.
Turning to `O=C([C@H]1CCN(Cc2c[nH]c(=O)c(C(F)(F)F)c2)C1)N1C2CCC1CN(c1ncc(C(F)(F)F)cn1)C2` [Embodiment 9, 3-(trifluoromethyl)-5-(((3S)-3-(3-(5-(trifluoromethyl)pyrimidin-2-yl)-3,8-diazabicyclo[3.2.1]octane-8-carbonyl)pyrrolidin-1-yl)methyl)pyridin-2(1H)-one], the IC50 lay in the range of 1 to 10 µM.
In turn, `O=C([C@@H]1CCN(Cc2c[nH]c(=O)c(C(F)(F)F)c2)C1)N1C2CCC1CN(c1ncc(C(F)(F)F)cn1)C2` [Embodiment 10, 3-(trifluoromethyl)-5-(((3R)-3-(3-(5-(trifluoromethyl)pyrimidin-2-yl)-3,8-diazabicyclo[3.2.1]octane-8-carbonyl)pyrrolidin-1-yl)methyl)pyridin-2(1H)-one] displayed a 50% inhibitory concentration (IC50) of 0.01 to 0.1 µM.
Regarding `O=C([C@H]1CCN(Cc2cc(C(F)(F)F)c(=O)[nH]n2)C1)N1C2CCC1CN(c1ncc(C(F)(F)F)cn1)C2` [Embodiment 11, 4-(trifluoromethyl)-6-(((3S)-3-(3-(5-(trifluoromethyl)pyrimidin-2-yl)-3,8-diazabicyclo[3.2.1]octane-8-carbonyl)pyrrolidin-1-yl)methyl)pyridazin-3(2H)-one], the IC50 fell in the range of 0.1 to 1 µM.
Compound `O=C([C@H]1CCC[C@H](NCc2c[nH]c(=O)c(C(F)(F)F)c2)C1)N1CCN(c2ncc(C(F)(F)F)cn2)CC1` [Embodiment 16] returned a concentration for half-maximal inhibition (IC50) of 1 to 10 µM.
Turning to `O=C([C@H]1CCCN(Cc2c[nH]c(=O)c(C(F)(F)F)c2)C1)N1CCN(c2ncc(C(F)(F)F)cn2)CC1` [Embodiment 17], the concentration for half-maximal inhibition (IC50) was 0.1 to 1 µM.
`O=C(C1CCN(Cc2c[nH]c(=O)c(C(F)(F)F)c2)CC1)N1CCN(c2ncc(C(F)(F)F)cn2)CC1` [Embodiment 18] showed an IC50 of 0.1 to 1 µM.
As for `O=c1[nH]cc(CN[C@H]2C[C@@H](C(=O)N3CCN(c4ncc(C(F)(F)F)cn4)CC3)C2)cc1C(F)(F)F` [Embodiment 19], the IC50 lay in the range of 0.01 to 0.1 µM.
Then `O=c1[nH]nc(CN[C@H]2C[C@@H](C(=O)N3CCN(c4ncc(C(F)(F)F)cn4)CC3)C2)cc1C(F)(F)F` [Embodiment 20], with 0.1 to 1 µM.
As to `O=C(C1CC2(C1)CN(Cc1c[nH]c(=O)c(C(F)(F)F)c1)C2)N1CCN(c2ncc(C(F)(F)F)cn2)CC1` [Embodiment 21], the IC50 fell in the range of 1 to 10 µM.
`O=C([C@@H]1CCCN(Cc2c[nH]c(=O)c(C(F)(F)F)c2)C1)N1CCN(c2ncc(C(F)(F)F)cn2)CC1` [Embodiment 22]: the half-maximal inhibitory concentration (IC50) fell in the range of 0.01 to 0.1 µM.
Take `C[C@H]1CN(C(=O)[C@H]2C[C@H](NCc3c[nH]c(=O)c(C(F)(F)F)c3)C2)CCN1c1ncc(C(F)(F)F)cn1` [Embodiment 23]: the IC50 is less than 0.01 µM.
Compound `O=C([C@@H]1CCN(Cc2c[nH]c(=O)c(C(F)(F)F)c2)C1)N1CCN(c2ncc(C(F)(F)F)cn2)CC1` [Embodiment 24] had an IC50 of 0.01 to 0.1 µM.
`O=C(N1CCN(c2ncc(C(F)(F)F)cn2)CC1)C12CC(NCc3c[nH]c(=O)c(C(F)(F)F)c3)(C1)C2` [Embodiment 25] yielded an IC50 of 0.1 to 1 µM.
`C[C@H]1CN(C(=O)C2CN(Cc3c[nH]c(=O)c(C(F)(F)F)c3)C2)CCN1c1ncc(C(F)(F)F)cn1` [Embodiment 26] returned a half-maximal inhibitory concentration (IC50) of 0.01 to 0.1 µM.
For the compound `O=C(C1CN(Cc2c[nH]c(=O)c(C(F)(F)F)c2)C1)N1CCN(c2ccc(C(F)(F)F)cn2)CC1` [Embodiment 27], the half-maximal inhibitory concentration (IC50) is 0.01 to 0.1 µM.
The compound `O=c1[nH]cc(CN[C@H]2C[C@H](C(=O)N3CCN(c4ccc(C(F)(F)F)cn4)CC3)C2)cc1C(F)(F)F` [Embodiment 28] yielded an IC50 of 0.01 to 0.1 µM.
In the case of `O=C(C1CN(Cc2c[nH]c(=O)c(C(F)(F)F)c2)C1)N1CCN(c2cnc(C(F)(F)F)cn2)CC1` [Embodiment 29], the IC50 lay within 0.01 to 0.1 µM.
As to `C[C@H]1CN(C(=O)[C@@H]2CCN(Cc3cc(C(F)(F)F)c(=O)[nH]n3)C2)CCN1c1ncc(C(F)(F)F)cn1` [Embodiment 30], the IC50 lay within 0.01 to 0.1 µM.
Turning to `O=C([C@@H]1CCN(Cc2cc(C(F)(F)F)c(=O)[nH]n2)C1)N1CCN(c2ncc(C(F)(F)F)cn2)CC1` [Embodiment 31], the IC50 is 0.01 to 0.1 µM.
On to `O=C(C1CN(Cc2cc(C(F)(F)F)c(=O)[nH]n2)C1)N1CCN(c2ccc(C(F)(F)F)cn2)CC1` [Embodiment 32], for which the half-maximal inhibitory concentration (IC50) is 0.01 to 0.1 µM.
In turn, `COc1nnc(CN(C)[C@H]2C[C@H](C(=O)N3CCN(c4ncc(C(F)(F)F)cn4)CC3)C2)cc1C(F)(F)F` [Embodiment 33, ((1R,3R)-3-(((6-methoxy-5-(trifluoromethyl)pyridazin-3-yl)methyl)(methyl)amino)cyclobutyl)(4-(5-(trifluoromethyl)pyrimidin-2-yl)piperazin-1-yl)methanone] returned an IC50 of 1 to 10 µM.
In the case of `CN(Cc1cc(C(F)(F)F)c(=O)[nH]n1)[C@H]1C[C@H](C(=O)N2CCN(c3ncc(C(F)(F)F)cn3)CC2)C1` [Embodiment 34] it was 0.01 to 0.1 µM; in that of `O=C(C1CN(Cc2cc(C(F)(F)F)c(=O)[nH]n2)C1)N1CCN2c3ncc(C(F)(F)F)cc3OCC[C@@H]2C1` [Embodiment 37], 0.01 to 0.1 µM.
Consider `O=c1[nH]nc(CN[C@H]2C[C@H](C(=O)N3CCN4c5ncc(C(F)(F)F)cc5OCC[C@@H]4C3)C2)cc1C(F)(F)F` [Embodiment 38], for which the IC50 lay in the range of 0.01 to 0.1 µM.
Then `O=c1[nH]nc(CN[C@H]2C[C@H](C(=O)N3CCN4c5ncc(C(F)(F)F)cc5COC[C@H]4C3)C2)cc1C(F)(F)F` [Embodiment 39], with 0.01 to 0.1 µM; and `O=C(C1CN(Cc2cc(C(F)(F)F)c(=O)[nH]n2)C1)N1CCN2c3ncc(C(F)(F)F)cc3OCC[C@H]2C1` [Embodiment 40, (S)-4-(trifluoromethyl)-6-((3-(3-(trifluoromethyl)-7,7a,8,9,10,11-hexahydro-6H-pyrazino[1,2-d]pyrido[3,2-b][1,4]oxazepine-9-carbonyl)azetidin-1-yl)methyl)pyridazin-3(2H)-one], with 0.01 to 0.1 µM.
Take `O=c1[nH]nc(CN[C@H]2C[C@H](C(=O)N3CCN4c5ncc(C(F)(F)F)cc5OCC[C@H]4C3)C2)cc1C(F)(F)F` [Embodiment 41]: the IC50 lay in the range of 0.01 to 0.1 µM.
Compound `O=C(C1CN(Cc2cc(C(F)(F)F)c(=O)[nH]n2)C1)N1CCN2c3ncc(C(F)(F)F)cc3COC[C@H]2C1` [Embodiment 42, (R)-4-(trifluoromethyl)-6-((3-(3-(trifluoromethyl)-7,7a,8,9,10,11-hexahydro-5H-pyrazino[2,1-c]pyrido[2,3-e][1,4]oxazepine-9-carbonyl)azetidin-1-yl)methyl)pyridazin-3(2H)-one] yielded an IC50 of 0.01 to 0.1 µM.
`O=c1[nH]nc(CN[C@H]2C[C@H](C(=O)N3CCN4c5ncc(C(F)(F)F)cc5COC[C@@H]4C3)C2)cc1C(F)(F)F` [Embodiment 43] came in with an IC50 of 0.01 to 0.1 µM.

Values taken from patent US20260200942A1, “PARP7 INHIBITORS AND THEIR APPLICATIONS” (CHONGQING PHARSCIN INNOBIO CO., LTD., priority 2023, published 2026).
